Earlier results on one compound are cited in patent publication US20070203026A1, “Methods for controlling bermudagrass, bermudagrass hybrids and other weedy monocot and dicot species” (TurfEcosystems, LLC, priority 2006, published 2007).

For one data set, the system named is crested wheatgrass. Conditions: saturated soil paste extract data.
Another data set relates to tall fescue. Conditions: saturated soil paste extract data.
A further data set concerns perennial ryegrass. Conditions: saturated soil paste extract data.
The test system of another data set is bermudagrass. Particulars: saturated soil paste extract data.
The test system of data set [1] is fairway crested wheatgrass. Particulars: saturated soil paste extract data.
For the next data set, the system named is seashore paspalum. Particulars: ocean level chlorides.

On to `Cl` [chloride], for which the “maximum soil chloride concentration threshold” value is “about 1050 ppm” in the data set with crested wheatgrass; “about 1400 ppm” in the data set on tall fescue; “about 1025 ppm” in the data set with perennial ryegrass; “about 2450 ppm” in the data set with bermudagrass; “about 2625 ppm” in data set [1]. The “chlorides withstood (salinity tolerance)” value in the data set with seashore paspalum is given as ~19,000 ppm.
